For this experiment, the target named is Leucyl-cystinyl aminopeptidase (Homo sapiens) (UniProt Q9UIQ6). Kind of experiment: Inhibition of human IRAP using L-leucine 7-amido-4-methyl coumarin substrate by microplate fluorescence reader based assay.

Where a SMILES comes first, the peptide text is derived from it. The star is where a group is joined. X1 = CC(C)CC(CP(=O)(O)[C@@H](N)CCc1ccccc1)C(=O)*

Chain of Leucyl-cystinyl aminopeptidase (Homo sapiens) (Q9UIQ6 whole entry, looked up): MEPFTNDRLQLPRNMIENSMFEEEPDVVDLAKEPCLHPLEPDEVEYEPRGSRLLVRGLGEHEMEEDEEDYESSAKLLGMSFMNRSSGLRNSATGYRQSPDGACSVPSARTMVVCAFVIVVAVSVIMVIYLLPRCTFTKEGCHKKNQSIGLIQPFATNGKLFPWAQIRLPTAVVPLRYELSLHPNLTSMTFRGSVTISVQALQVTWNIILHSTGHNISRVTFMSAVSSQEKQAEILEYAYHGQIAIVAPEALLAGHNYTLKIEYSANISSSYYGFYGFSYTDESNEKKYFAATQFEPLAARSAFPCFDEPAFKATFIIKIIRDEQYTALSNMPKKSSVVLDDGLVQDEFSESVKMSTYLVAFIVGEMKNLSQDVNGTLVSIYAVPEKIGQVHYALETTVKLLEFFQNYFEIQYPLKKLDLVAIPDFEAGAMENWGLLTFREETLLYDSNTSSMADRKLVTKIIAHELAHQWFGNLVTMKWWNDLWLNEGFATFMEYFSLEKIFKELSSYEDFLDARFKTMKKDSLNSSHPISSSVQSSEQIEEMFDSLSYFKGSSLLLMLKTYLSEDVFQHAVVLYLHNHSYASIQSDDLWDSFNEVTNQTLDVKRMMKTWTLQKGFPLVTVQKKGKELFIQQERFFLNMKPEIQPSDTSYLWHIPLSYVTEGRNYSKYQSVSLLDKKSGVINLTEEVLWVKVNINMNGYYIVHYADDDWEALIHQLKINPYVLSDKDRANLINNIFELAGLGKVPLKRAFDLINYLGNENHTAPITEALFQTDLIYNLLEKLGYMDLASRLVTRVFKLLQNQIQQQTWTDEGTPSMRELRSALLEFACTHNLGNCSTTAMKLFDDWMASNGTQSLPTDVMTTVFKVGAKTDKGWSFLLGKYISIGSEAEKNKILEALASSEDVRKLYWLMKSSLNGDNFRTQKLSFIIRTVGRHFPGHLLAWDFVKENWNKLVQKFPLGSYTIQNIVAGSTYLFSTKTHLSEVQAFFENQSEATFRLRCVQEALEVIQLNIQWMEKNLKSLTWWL

The compound `C#CC[C@H](CP(=O)(O)[C@@H](N)CCc1ccccc1)C(=O)N[C@@H](Cc1ccccc1)C(N)=O` returned an IC50 of 2 nM.
As for `NC(=O)[C@H](Cc1ccccc1)NC(=O)[C@H](CCC(c1ccccc1)c1ccccc1)CP(=O)(O)[C@@H](N)CCc1ccccc1`, inhibition was half-maximal at 32 nM (IC50).
With `CC(C)CC(CP(=O)(O)[C@@H](N)CCc1ccccc1)C(=O)N[C@@H](CCCCN)C(=O)N[C@@H](Cc1cnc[nH]1)C(=O)N[C@@H](Cc1cnc[nH]1)C(=O)N[C@@H](C)C(=O)N[C@@H](Cc1ccccc1)C(=O)N[C@@H](CO)C(=O)N[C@@H](Cc1ccccc1)C(=O)N[C@@H](CCCCN)C(N)=O` (stereo partly drawn) (X1-KHHAFSFK-NH2), 7.7 nM corresponded to half-maximal inhibition (IC50).

Source of the values: BindingDB's records for doi:10.1016/j.bmcl.2019.02.034 (Wroclaw University of Technology, 2019).
